Values quoted from earlier work, collected in patent publication US11419835B2, “Method of treatment and prevention of bacterial vaginosis” (EVOFEM, INC., priority 2016, dated 2022).

Test system: HIV
Conditions: compared with D or racemic lactic acid

## C[C@H](O)C(=O)O [L-lactic acid, L-(+)-lactic acid]
  potency in inactivating HIV: more potent in inactivating HIV than D or racemic lactic acid
